Organism: Rattus norvegicus
Assay: Open TG-GATES - Regimen: Single
Format: toxicity, organism-based, Sprague-Dawley
Design: regimen Single, gender Male, age 6 weeks
Conditions: in vivo, po, route gavage; for Bas / Eos / Fbg / Hb / Ht / Lym / MCH / MCHC / MCV / Mono / Neu / PT / Plat / RBC / Ret / WBC: tissue Blood; for KIDNEY_L / KIDNEY_R / KIDNEY_TOTAL: tissue Kidney; for LIVER: tissue Liver; for ALP / ALT / AST / BUN / CRE / Ca / Cl / DBIL / GLC / IP / K / LDH / Na / PL / RALB / TBIL / TC / TG / TP / gamma-GTP: tissue Plasma
[1] = 150 mg/kg, 3 h, dose level Middle
[2] = 150 mg/kg, 6 h, dose level Middle
[3] = 150 mg/kg, 9 h, dose level Middle
[4] = 150 mg/kg, 24 h, dose level Middle

CN(C)CCCN1c2ccccc2Sc2ccc(Cl)cc21 [CHLORPROMAZINE]
TERMINAL_BW (45 mg/kg, 9 h, dose level Low): 211.4 g
Bas (45 mg/kg, 9 h, dose level Low): 0%
Eos (45 mg/kg, 9 h, dose level Low): 1%
Fbg (45 mg/kg, 9 h, dose level Low): 219.2 mg/dL
Hb (45 mg/kg, 9 h, dose level Low): 12.8 g/dL
Ht (45 mg/kg, 9 h, dose level Low): 37.4%
Lym (45 mg/kg, 9 h, dose level Low): 76.6%
MCH (45 mg/kg, 9 h, dose level Low): 21.4 pg
MCHC (45 mg/kg, 9 h, dose level Low): 34.1%
MCV (45 mg/kg, 9 h, dose level Low): 62.7 fL
Mono (45 mg/kg, 9 h, dose level Low): 2.8%
Neu (45 mg/kg, 9 h, dose level Low): 18.8%
PT (45 mg/kg, 9 h, dose level Low): 12.3 s
Plat (45 mg/kg, 9 h, dose level Low): 128.5 x10_4/uL
RBC (45 mg/kg, 9 h, dose level Low): 596.6 x10_4/ul
Ret (45 mg/kg, 9 h, dose level Low): 8%
WBC (45 mg/kg, 9 h, dose level Low): 53.8 x10_2/uL
KIDNEY_L (45 mg/kg, 9 h, dose level Low): 0.9 g
KIDNEY_R (45 mg/kg, 9 h, dose level Low): 0.9 g
KIDNEY_TOTAL (45 mg/kg, 9 h, dose level Low): 1.8 g
LIVER (45 mg/kg, 9 h, dose level Low): 9.1 g
ALP (45 mg/kg, 9 h, dose level Low): 807.4 IU/L
ALT (45 mg/kg, 9 h, dose level Low): 28.2 IU/L
AST (45 mg/kg, 9 h, dose level Low): 63.2 IU/L
BUN (45 mg/kg, 9 h, dose level Low): 9.4 mg/dL
CRE (45 mg/kg, 9 h, dose level Low): 0.4 mg/dL
Ca (45 mg/kg, 9 h, dose level Low): 10.4 mg/dL
Cl (45 mg/kg, 9 h, dose level Low): 106.4 meq/L
DBIL (45 mg/kg, 9 h, dose level Low): 0.07 mg/dL
GLC (45 mg/kg, 9 h, dose level Low): 263.8 mg/dL
IP (45 mg/kg, 9 h, dose level Low): 9.6 mg/dL
K (45 mg/kg, 9 h, dose level Low): 3.6 meq/L
LDH (45 mg/kg, 9 h, dose level Low): 215.6 IU/L
Na (45 mg/kg, 9 h, dose level Low): 143.4 meq/L
PL (45 mg/kg, 9 h, dose level Low): 147.2 mg/dL
RALB (45 mg/kg, 9 h, dose level Low): 3.4 g/dL
TBIL (45 mg/kg, 9 h, dose level Low): 0.1 mg/dL
TC (45 mg/kg, 9 h, dose level Low): 84.4 mg/dL
TG (45 mg/kg, 9 h, dose level Low): 14 mg/dL
TP (45 mg/kg, 9 h, dose level Low): 5.6 g/dL
gamma-GTP (45 mg/kg, 9 h, dose level Low): 0.8 IU/L
TERMINAL_BW (45 mg/kg, 24 h, dose level Low): 211.2 g
Bas (45 mg/kg, 24 h, dose level Low): 1%
Eos (45 mg/kg, 24 h, dose level Low): 0.8%
Fbg (45 mg/kg, 24 h, dose level Low): 213.6 mg/dL
Hb (45 mg/kg, 24 h, dose level Low): 14.3 g/dL
Ht (45 mg/kg, 24 h, dose level Low): 42%
Lym (45 mg/kg, 24 h, dose level Low): 77.8%
MCH (45 mg/kg, 24 h, dose level Low): 21.7 pg
MCHC (45 mg/kg, 24 h, dose level Low): 33.9%
MCV (45 mg/kg, 24 h, dose level Low): 64.1 fL
Mono (45 mg/kg, 24 h, dose level Low): 2.4%
Neu (45 mg/kg, 24 h, dose level Low): 17.6%
PT (45 mg/kg, 24 h, dose level Low): 11.7 s
Plat (45 mg/kg, 24 h, dose level Low): 137.7 x10_4/uL
RBC (45 mg/kg, 24 h, dose level Low): 656.8 x10_4/ul
Ret (45 mg/kg, 24 h, dose level Low): 7.5%
WBC (45 mg/kg, 24 h, dose level Low): 87 x10_2/uL
KIDNEY_L (45 mg/kg, 24 h, dose level Low): 1 g
KIDNEY_R (45 mg/kg, 24 h, dose level Low): 1 g
KIDNEY_TOTAL (45 mg/kg, 24 h, dose level Low): 2 g
LIVER (45 mg/kg, 24 h, dose level Low): 9.2 g
ALP (45 mg/kg, 24 h, dose level Low): 861 IU/L
ALT (45 mg/kg, 24 h, dose level Low): 35.8 IU/L
AST (45 mg/kg, 24 h, dose level Low): 84 IU/L
BUN (45 mg/kg, 24 h, dose level Low): 21.8 mg/dL
CRE (45 mg/kg, 24 h, dose level Low): 0.5 mg/dL
Ca (45 mg/kg, 24 h, dose level Low): 10.7 mg/dL
Cl (45 mg/kg, 24 h, dose level Low): 104.6 meq/L
DBIL (45 mg/kg, 24 h, dose level Low): 0.062 mg/dL
GLC (45 mg/kg, 24 h, dose level Low): 217.8 mg/dL
IP (45 mg/kg, 24 h, dose level Low): 8.9 mg/dL
K (45 mg/kg, 24 h, dose level Low): 3.8 meq/L
LDH (45 mg/kg, 24 h, dose level Low): 239.4 IU/L
Na (45 mg/kg, 24 h, dose level Low): 144 meq/L
PL (45 mg/kg, 24 h, dose level Low): 132.2 mg/dL
RALB (45 mg/kg, 24 h, dose level Low): 3.7 g/dL
TBIL (45 mg/kg, 24 h, dose level Low): 0.1 mg/dL
TC (45 mg/kg, 24 h, dose level Low): 70.8 mg/dL
TG (45 mg/kg, 24 h, dose level Low): 76.4 mg/dL
TP (45 mg/kg, 24 h, dose level Low): 5.9 g/dL
gamma-GTP (45 mg/kg, 24 h, dose level Low): 1 IU/L
TERMINAL_BW [1]: 221.2 g
Bas [1]: 0%
Eos [1]: 0.8%
Fbg [1]: 211.2 mg/dL
Hb [1]: 12.6 g/dL
Ht [1]: 37.6%
Lym [1]: 73.4%
MCH [1]: 21.3 pg
MCHC [1]: 33.5%
MCV [1]: 63.4 fL
Mono [1]: 2.6%
Neu [1]: 22.2%
PT [1]: 12.4 s
Plat [1]: 120.3 x10_4/uL
RBC [1]: 593.4 x10_4/ul
Ret [1]: 8.4%
WBC [1]: 49.8 x10_2/uL
KIDNEY_L [1]: 0.9 g
KIDNEY_R [1]: 0.9 g
KIDNEY_TOTAL [1]: 1.8 g
LIVER [1]: 9.9 g
ALP [1]: 942 IU/L
ALT [1]: 33.4 IU/L
AST [1]: 71.4 IU/L
BUN [1]: 10.8 mg/dL
CRE [1]: 0.4 mg/dL
Ca [1]: 10.9 mg/dL
Cl [1]: 105.6 meq/L
DBIL [1]: 0.062 mg/dL
GLC [1]: 229.6 mg/dL
IP [1]: 10.3 mg/dL
K [1]: 3.8 meq/L
LDH [1]: 212.2 IU/L
Na [1]: 145.2 meq/L
PL [1]: 132.2 mg/dL
RALB [1]: 3.4 g/dL
TBIL [1]: 0.1 mg/dL
TC [1]: 69.8 mg/dL
TG [1]: 61.8 mg/dL
TP [1]: 5.4 g/dL
gamma-GTP [1]: 1 IU/L
TERMINAL_BW [2]: 215.2 g
Bas [2]: 0%
Eos [2]: 1%
Fbg [2]: 209.8 mg/dL
Hb [2]: 12.4 g/dL
Ht [2]: 36.4%
Lym [2]: 73%
MCH [2]: 21 pg
MCHC [2]: 34.2%
MCV [2]: 61.6 fL
Mono [2]: 2.4%
Neu [2]: 23%
PT [2]: 12.7 s
Plat [2]: 122.6 x10_4/uL
RBC [2]: 591.2 x10_4/ul
Ret [2]: 7.9%
WBC [2]: 46.9 x10_2/uL
KIDNEY_L [2]: 0.9 g
KIDNEY_R [2]: 1 g
KIDNEY_TOTAL [2]: 1.9 g
LIVER [2]: 9.4 g
ALP [2]: 685.2 IU/L
ALT [2]: 29.4 IU/L
AST [2]: 67.2 IU/L
BUN [2]: 9.4 mg/dL
CRE [2]: 0.4 mg/dL
Ca [2]: 10.4 mg/dL
Cl [2]: 105.6 meq/L
DBIL [2]: 0.064 mg/dL
GLC [2]: 246.2 mg/dL
IP [2]: 10.5 mg/dL
K [2]: 3.5 meq/L
LDH [2]: 214.6 IU/L
Na [2]: 144.4 meq/L
PL [2]: 127.6 mg/dL
RALB [2]: 3.3 g/dL
TBIL [2]: 0.1 mg/dL
TC [2]: 72.6 mg/dL
TG [2]: 26.2 mg/dL
TP [2]: 5.3 g/dL
gamma-GTP [2]: 0.8 IU/L
TERMINAL_BW [3]: 211.5 g
Bas [3]: 0%
Eos [3]: 1%
Fbg [3]: 222.4 mg/dL
Hb [3]: 12.4 g/dL
Ht [3]: 36.9%
Lym [3]: 71.8%
MCH [3]: 21.1 pg
MCHC [3]: 33.7%
MCV [3]: 62.7 fL
Mono [3]: 4%
Neu [3]: 20%
PT [3]: 12.7 s
Plat [3]: 126.5 x10_4/uL
RBC [3]: 590.6 x10_4/ul
Ret [3]: 8.3%
WBC [3]: 40.7 x10_2/uL
KIDNEY_L [3]: 0.9 g
KIDNEY_R [3]: 0.9 g
KIDNEY_TOTAL [3]: 1.8 g
LIVER [3]: 8.8 g
ALP [3]: 813.8 IU/L
ALT [3]: 29 IU/L
AST [3]: 64.2 IU/L
BUN [3]: 10.6 mg/dL
CRE [3]: 0.4 mg/dL
Ca [3]: 10.6 mg/dL
Cl [3]: 105.6 meq/L
DBIL [3]: 0.07 mg/dL
GLC [3]: 237.8 mg/dL
IP [3]: 10.8 mg/dL
K [3]: 3.6 meq/L
LDH [3]: 171.4 IU/L
Na [3]: 143.2 meq/L
PL [3]: 136.6 mg/dL
RALB [3]: 3.4 g/dL
TBIL [3]: 0.1 mg/dL
TC [3]: 81 mg/dL
TG [3]: 17.6 mg/dL
TP [3]: 5.4 g/dL
gamma-GTP [3]: 1 IU/L
TERMINAL_BW [4]: 194.9 g
Bas [4]: 0.4%
Eos [4]: 1%
Fbg [4]: 215.4 mg/dL
Hb [4]: 13.6 g/dL
Ht [4]: 39.9%
Lym [4]: 69.2%
MCH [4]: 21.3 pg
MCHC [4]: 34.2%
MCV [4]: 62.3 fL
Mono [4]: 5.2%
Neu [4]: 23.2%
PT [4]: 11.4 s
Plat [4]: 152.2 x10_4/uL
RBC [4]: 640.4 x10_4/ul
Ret [4]: 7.1%
WBC [4]: 43.7 x10_2/uL
KIDNEY_L [4]: 0.9 g
KIDNEY_R [4]: 0.9 g
KIDNEY_TOTAL [4]: 1.8 g
LIVER [4]: 7.8 g
ALP [4]: 873.2 IU/L
ALT [4]: 24.6 IU/L
AST [4]: 82 IU/L
BUN [4]: 14.2 mg/dL
CRE [4]: 0.4 mg/dL
Ca [4]: 10.5 mg/dL
Cl [4]: 104.4 meq/L
DBIL [4]: 0.072 mg/dL
GLC [4]: 239 mg/dL
IP [4]: 10.6 mg/dL
K [4]: 3.7 meq/L
LDH [4]: 257.2 IU/L
Na [4]: 144.8 meq/L
PL [4]: 138 mg/dL
RALB [4]: 3.6 g/dL
TBIL [4]: 0.1 mg/dL
TC [4]: 77.6 mg/dL
TG [4]: 21.2 mg/dL
TP [4]: 5.8 g/dL
gamma-GTP [4]: 0.8 IU/L

— ChEMBL document CHEMBL3885861, “Open TG-GATES”
